# According to the supplement of paper PMC10307832:
# Assays:
# Assay in all cases: relative viability (nuclei count vs DMSO), 5 days (fraction); higher = more cells survive
# [1] = tested on: A-427
# Outline: (§1)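 Relative viability was taken as the ratio of nuclei in treated wells to nuclei in vehicle wells. Lung cancer cell lines in 1536-well plates received compounds by pin tool one day after seeding, either one drug alone or a fixed anchor-drug dose plus five library-drug doses (not always all listed) in √10 steps. Nuclei were counted on 4× images after 5 days of treatment, and values are medians of duplicate plates.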
# [2] = tested on: COR-L 105
# Outline: as §1
# [3] = tested on: ChaGo-K-1
# Outline: as §1
# [4] = tested on: EKVX
# Outline: as §1
# [5] = tested on: EMC-BAC-2
# Outline: as §1
# [6] = tested on: H3255
# Outline: as §1
# [7] = tested on: HCC-366
# Outline: as §1
# [8] = tested on: LK-2
# Outline: as §1
# [9] = tested on: LOU-NH91
# Outline: as §1
# [10] = tested on: NCI-H1563
# Outline: as §1
# [11] = tested on: NCI-H1666
# Outline: as §1
# [12] = tested on: NCI-H1734
# Outline: as §1
# [13] = tested on: NCI-H1755
# Outline: as §1
# [14] = tested on: NCI-H1975
# Outline: as §1
# [15] = tested on: NCI-H2170
# Outline: as §1
# [16] = tested on: NCI-H23
# Outline: as §1
# [17] = tested on: NCI-H441
# Outline: as §1
# [18] = tested on: NCI-H520
# Outline: as §1
# [19] = tested on: NCI-H596
# Outline: as §1
# [20] = tested on: PC-3 [JPC-3]
# Outline: as §1
# [21] = tested on: SK-MES-1
# Outline: as §1
smiles,measurement,setting,value
CC(=O)O[C@@]12CO[C@@H]1C[C@H](O)[C@@]1(C)C(=O)[C@H](O)C3=C(C)[C@@H](OC(=O)[C@H](O)[C@@H](NC(=O)OC(C)(C)C)c4ccccc4)C[C@@](O)([C@@H](OC(=O)c4ccccc4)[C@H]21)C3(C)C [Docetaxel] + CS(=O)(=O)N1CCN(Cc2cc3nc(-c4cccc5[nH]ncc45)nc(N4CCOCC4)c3s2)CC1 [Pictilisib] (partner 1 µM),relative viability,[1]; first compound 0.0002 µM,0.766
same,relative viability,[1]; first compound 0.000632 µM,0.885
same,relative viability,[1]; first compound 0.002 µM,0.488
same,relative viability,[1]; first compound 0.006325 µM,0.23
same,relative viability,[1]; first compound 0.02 µM,0.158
same,relative viability,[2]; first compound 0.0002 µM,0.392
same,relative viability,[2]; first compound 0.000632 µM,0.37
same,relative viability,[2]; first compound 0.002 µM,0.278
same,relative viability,[2]; first compound 0.006325 µM,0.228
same,relative viability,[2]; first compound 0.02 µM,0.294
same,relative viability,[3]; first compound 0.0002 µM,0.771
same,relative viability,[3]; first compound 0.000632 µM,0.421
same,relative viability,[3]; first compound 0.002 µM,0.44
same,relative viability,[3]; first compound 0.006325 µM,0.354
same,relative viability,[3]; first compound 0.02 µM,0.201
same,relative viability,[4]; first compound 0.0002 µM,0.447
same,relative viability,[4]; first compound 0.000632 µM,0.45
same,relative viability,[4]; first compound 0.002 µM,0.26
same,relative viability,[4]; first compound 0.006325 µM,0.187
same,relative viability,[4]; first compound 0.02 µM,0.119
same,relative viability,[5]; first compound 0.0002 µM,0.555
same,relative viability,[5]; first compound 0.000632 µM,0.469
same,relative viability,[5]; first compound 0.002 µM,0.324
same,relative viability,[5]; first compound 0.006325 µM,0.271
same,relative viability,[5]; first compound 0.02 µM,0.207
same,relative viability,[6]; first compound 0.0002 µM,0.395
same,relative viability,[6]; first compound 0.000632 µM,0.544
same,relative viability,[6]; first compound 0.002 µM,0.272
same,relative viability,[6]; first compound 0.006325 µM,0.21
same,relative viability,[6]; first compound 0.02 µM,0.195
same,relative viability,[7]; first compound 0.0002 µM,0.0877
same,relative viability,[7]; first compound 0.002 µM,0.0735
same,relative viability,[7]; first compound 0.006325 µM,0.0362
same,relative viability,[7]; first compound 0.02 µM,0.0228
same,relative viability,[8]; first compound 0.0002 µM,0.496
same,relative viability,[8]; first compound 0.000632 µM,0.404
same,relative viability,[8]; first compound 0.002 µM,0.216
same,relative viability,[8]; first compound 0.006325 µM,0.25
same,relative viability,[8]; first compound 0.02 µM,0.203
same,relative viability,[9]; first compound 0.0002 µM,0.524
same,relative viability,[9]; first compound 0.000632 µM,0.491
same,relative viability,[9]; first compound 0.002 µM,0.38
same,relative viability,[9]; first compound 0.006325 µM,0.318
same,relative viability,[9]; first compound 0.02 µM,0.339
same,relative viability,[10]; first compound 0.0002 µM,0.662
same,relative viability,[10]; first compound 0.000632 µM,0.683
same,relative viability,[10]; first compound 0.002 µM,0.71
same,relative viability,[10]; first compound 0.006325 µM,0.564
same,relative viability,[10]; first compound 0.02 µM,0.506
same,relative viability,[11]; first compound 0.0002 µM,0.4
same,relative viability,[11]; first compound 0.000632 µM,0.431
same,relative viability,[11]; first compound 0.002 µM,0.273
same,relative viability,[11]; first compound 0.006325 µM,0.198
same,relative viability,[11]; first compound 0.02 µM,0.169
same,relative viability,[12]; first compound 0.0002 µM,0.462
same,relative viability,[12]; first compound 0.000632 µM,0.387
same,relative viability,[12]; first compound 0.002 µM,0.347
same,relative viability,[12]; first compound 0.006325 µM,0.335
same,relative viability,[12]; first compound 0.02 µM,0.213
same,relative viability,[13]; first compound 0.0002 µM,0.346
same,relative viability,[13]; first compound 0.000632 µM,0.306
same,relative viability,[13]; first compound 0.002 µM,0.264
same,relative viability,[13]; first compound 0.006325 µM,0.249
same,relative viability,[13]; first compound 0.02 µM,0.183
same,relative viability,[14]; first compound 0.0002 µM,0.3
same,relative viability,[14]; first compound 0.000632 µM,0.261
same,relative viability,[14]; first compound 0.002 µM,0.213
same,relative viability,[14]; first compound 0.006325 µM,0.156
same,relative viability,[14]; first compound 0.02 µM,0.121
same,relative viability,[15]; first compound 0.0002 µM,0.342
same,relative viability,[15]; first compound 0.000632 µM,0.288
same,relative viability,[15]; first compound 0.002 µM,0.183
same,relative viability,[15]; first compound 0.006325 µM,0.186
same,relative viability,[16]; first compound 0.0002 µM,0.499
same,relative viability,[16]; first compound 0.000632 µM,0.403
same,relative viability,[16]; first compound 0.002 µM,0.248
same,relative viability,[16]; first compound 0.006325 µM,0.185
same,relative viability,[16]; first compound 0.02 µM,0.144
same,relative viability,[17]; first compound 0.0002 µM,0.352
same,relative viability,[17]; first compound 0.000632 µM,0.32
same,relative viability,[17]; first compound 0.002 µM,0.198
same,relative viability,[17]; first compound 0.006325 µM,0.177
same,relative viability,[17]; first compound 0.02 µM,0.11
same,relative viability,[18]; first compound 0.0002 µM,0.274
same,relative viability,[18]; first compound 0.000632 µM,0.27
same,relative viability,[18]; first compound 0.002 µM,0.239
same,relative viability,[18]; first compound 0.006325 µM,0.231
same,relative viability,[18]; first compound 0.02 µM,0.157
same,relative viability,[19]; first compound 0.0002 µM,0.405
same,relative viability,[19]; first compound 0.000632 µM,0.252
same,relative viability,[19]; first compound 0.002 µM,0.452
same,relative viability,[19]; first compound 0.006325 µM,0.297
same,relative viability,[19]; first compound 0.02 µM,0.256
same,relative viability,[20]; first compound 0.0002 µM,0.693
same,relative viability,[20]; first compound 0.000632 µM,0.715
same,relative viability,[20]; first compound 0.002 µM,0.454
same,relative viability,[20]; first compound 0.006325 µM,0.329
same,relative viability,[20]; first compound 0.02 µM,0.229
same,relative viability,[21]; first compound 0.0002 µM,0.303
same,relative viability,[21]; first compound 0.000632 µM,0.34
same,relative viability,[21]; first compound 0.006325 µM,0.206
same,relative viability,[21]; first compound 0.02 µM,0.119
